Data as given in patent US6670371B2, “Certain pyrrolopyridine derivatives: novel CRF1 specific ligands” (Neurogen Corporation, priority 1995, dated 2003).

Experiments:
CRF receptors = target: T1, CRF receptors (Homo sapiens, UniProt P34998); test: CRF receptor binding assay (125I-CRF displacement); conditions: membrane pellets containing CRF receptors; 125I-CRF 100 pM; room temperature for 2 hours; non specific binding defined by 1 uM cold CRF
T1 sequence (P34998 24-415): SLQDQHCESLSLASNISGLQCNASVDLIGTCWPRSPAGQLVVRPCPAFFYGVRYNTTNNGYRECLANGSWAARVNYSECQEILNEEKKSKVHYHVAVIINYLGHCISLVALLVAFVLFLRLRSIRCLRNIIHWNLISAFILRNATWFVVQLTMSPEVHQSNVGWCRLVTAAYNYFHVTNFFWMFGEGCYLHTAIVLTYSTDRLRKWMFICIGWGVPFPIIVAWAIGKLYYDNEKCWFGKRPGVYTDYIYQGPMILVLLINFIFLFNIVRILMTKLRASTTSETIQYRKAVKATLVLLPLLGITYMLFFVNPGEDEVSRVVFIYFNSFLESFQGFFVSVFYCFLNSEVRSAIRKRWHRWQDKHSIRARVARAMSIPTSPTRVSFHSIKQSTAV
Description: Assay for CRF Receptor Binding Activity
CRF receptor binding was performed using a modified version of the assay described by Grigoriadis and De Souza (Biochemical, Pharmacological, and Autoradiographic Methods to Study Corticotropin-Releasing Factor Receptors. Methods in Neurosciences, Vol. 5, 1991). Membrane pellets containing CRF receptors were resuspended in 50 mM Tris buffer pH 7.7 containing 10 mM MgCl2 and 2 mM EGTA and centrifuged for 10 minutes at 48000 g. Membranes were washed again and brought to a final concentration of 1500 ug/ml in binding buffer (Tris buffer above with 0.1% BSA, n 0.15 M bacitracin and 0.01 mg/ml aprotinin.). For the binding assay, 100 ul of the membrane preparation was added to 96 well microtube plates containing 100 ul of 125I-CRF (SA 2200 Ci/mmol, final concentration of 100 pM) and 50 ul of drug. Binding was carried out at room temperature for 2 hours. Plates were then harvested on a Brandel 96 well cell harvester and filters were counted for gamma emissions on a Wallac 1205 Betaplate liquid scintillation counter. Non specific binding was defined by 1 uM cold CRF.

IC50 (CRF receptors): 11 nM
melting point: 117 to 118 °C
SMILES: CCCN(CCC)c1cc(C)nc2c1c1c(n2-c2c(C)cc(C)cc2C)CCCC1 [Compound 1, N,N-Dipropyl-2-methyl-6,7,8,9-tetrahydro-9-(2,4,6-trimethylphenyl)-5H-pyrido[2,3-b]indol-4-amine]
